From patent publication US20110207689A1, “THE TREATMENT OF HEARING LOSS” (Auckland UniServices Limited, priority 2008, published 2011)
“Also recorded” adds a separate entry of the source.

Columns and labels:
[1] = test system: nitrotyrosine immunoreactivity in the organ of Corti; assay: Nitrotyrosine (NT) immunohistochemistry of cochlea after 24 hours noise (Experiment 1); assay type: in vivo, Wistar rats; details: ADAC treated cochlea versus vehicle
Method: Hearing thresholds were assessed using auditory brainstem responses (ABRs) and the cellular damage was evaluated by quantitative histology (hair cell loss). ABR represents the activity of the auditory nerve and the central auditory pathways (brainstem/mid-brain regions) responding to the sound (clicks or pure tones). Nitrotyrosine marker was used for the immunohistochemical assessment of free radical damage.
After overnight fixation in 4% PFA, rat cochleae were decalcified in a 5% EDTA solution for 7 days and cryoprotected in a 30% sucrose (in 0.1 M PB) solution overnight. The cochleae were snap-frozen in N-pentane, and stored at −80° C. until further processing. Frozen cochlear tissues were cryosectioned at 30 μm and transferred into 24-well plates (Nalge Nunc Int., Naperville, USA) containing the sterile 0.1M PBS, and permeabilised with 1% Triton X-100 for 1 hr. Non-specific binding sites were blocked with 10% normal goat serum (Vector Laboratories, Burlingame, Calif.). […] Tissue sections were incubated with the secondary antibody for 2 hours in the dark, then rinsed several times in PBS, mounted in fluorescence medium (DAKO Corporation, Carpinteria, Calif., USA) and screened for NT specific immunofluorescence using a confocal microscope (TCS SP2, Leica Leisertechnik GmbH, Heidelberg, Germany). […]

[2] = test system: rats exposed to 8-12 kHz band noise for 2 hours at 110 dB SPL; assay: ABR threshold shifts after acute (2 hours) noise exposure, systemic ADAC (Experiment 2); assay type: in vivo, Wistar rats; details: 14 days post-noise
Method: ABRs were measured in response to auditory clicks and pure tones (4-28 kHz) before and at time intervals (30 minutes and 14 days) after noise exposure. Five ADAC injections (100 μg/kg i.p.) were administered at 24 hour intervals commencing 6 hours post-noise. In the control group, injections of the vehicle solution were administered at the same intervals as ADAC. Data are expressed as means±SEM. Animal numbers: n=8 per group. *p<0.05; **p<0.01; unpaired t-test.
Rats were exposed to 8-12 kHz band noise presented for 2 hours at 110 dB SPL. […]
ABRs were obtained by placing fine platinum electrodes subdermally at the mastoid region of the ear of interest (active electrode), scalp vertex (reference) and mastoid region of the opposite ear (ground electrode). […] The sound threshold of the ABR complex (waves I-IV) were determined by progressively attenuating the sound intensity until the waveform can no longer be observed. The acoustic stimuli for ABR were produced and the responses recorded using a Tucker-Davis Technologies auditory physiology workstation (Alachua, Fla., USA).
All ABR measurements were performed in a sound attenuator chamber (Shelburg Acoustics, Sydney, Australia). […] The ABR threshold was defined as the lowest intensity (to the nearest 5 dB) at which a response could be visually detected above the noise floor. […]

NCCNC(=O)Cc1ccc(NC(=O)Cc2ccc(Nc3ncnc4c3ncn4[C@@H]3O[C@H](CO)[C@@H](O)[C@H]3O)cc2)cc1 [ADAC, adenosine amine congener]
NT immunostaining in the cochlea [1]: very little NT immunostaining; also recorded: reduced in the ADAC treated cochlea to a background level | ABR threshold shifts versus vehicle-treated controls ([2]; five ADAC injections): threshold shifts were reduced | threshold recovery, highest ([2]; pure tone frequencies 4 to 16 kHz, five ADAC injections 100 μg/kg i.p. commencing 6 hours post-noise): up to 30 dB
